22 compounds from patent US20140256756A1, “PIPERIDINYL-SUBSTITUTED LACTAMS AS GPR119 MODULATORS” (Array BioPharma Inc., priority 2011, published 2014) can be followed below.

Counter-ions that a name gives are not always drawn.

The assay deals with modified version of the GPR119 receptor (94% identity to human receptor). Kind of assay: cAMP production assay (LANCE cAMP kit, TR-FRET) in HEK-293 cells. In kind it is cell-based. Particulars: for cAMP production in HEK-293 cells: HEK-293 cells stably expressing modified GPR119, test compounds 0.2 nM to 10 μM, one-hour incubation; for Fold over baseline: increase in cAMP relative to basal levels, agonist activity if 1.5-fold or greater. The protocol: The assay utilized HEK-293 cells that stably express a modified version of the GPR119 receptor (94% identity to human receptor), under the control of a CMV promoter containing a tet-on element for tetracycline-inducible expression. GPR119 agonist-induced cyclic AMP (cAMP) production was measured in this cell line using the LANCE cAMP kit (Perkin Elmer, Waltham, Mass.). To generate a working stock of cells for the assay, cells were treated overnight with 1 μg/mL doxycycline at 37° C. in the presence of 5% CO2 to induce receptor expression. Cells were then harvested by enzymatic dissociation with 0.05% trypsin, resuspended in freezing medium (DMEM growth medium with 10% each of fetal bovine serum and DMSO), aliquoted and frozen at −80° C. On the day of the assay, frozen cells were thawed, washed 1× in PBS and resuspended in Hank's buffered salt solution (HBSS) containing 5 mM HEPES, 0.1% BSA and Alexa Fluor 647-conjugated anti-cAMP antibody (diluted 1:100). The cell suspension was then transferred to a Proxiplate Plus white 384-well assay plate (Perkin-Elmer) at 2000 cells/well. Test compounds at final concentrations ranging from 0.2 nM to 10 μM were added to the assay plate, followed by a one-hour incubation at ambient temperature (volume=10 μL/well). DMSO concentration was held constant at 0.5%. After incubation with test compounds, 10 μL, of a detergent buffer containing a biotinylated cAMP/Europium-conjugated streptavidin complex (Europium-labeled cAMP tracer) were added to each well on the assay plate, followed by a 2-hour incubation at ambient temperature. During this incubation cAMP released from lysed cells competes with the Europium-labeled cAMP tracer for binding to the Alexa Fluor 647-conjugated antibody. […] Cellular cAMP levels were then determined by interpolation of raw signal data using a cAMP standard curve. Compounds were determined to have agonist activity if they stimulated a 1.5-fold or greater increase in cAMP relative to basal levels.

Take `CC(C)c1nsc(N2CCC(N3CC[C@H](Nc4ccc(S(C)(=O)=O)cc4F)C3=O)CC2)n1` [Example 1, (S)-3-(2-fluoro-4-(methylsulfonyl)phenylamino)-1-(1-(3-isopropyl-1,2,4-thiadiazol-5-yl)piperidin-4-yl)pyrrolidin-2-one]: the “cAMP production in HEK-293 cells” value turned out to be 21.6 nmol and the Fold over baseline is reported as 3.3.

For `CC(C)c1nsc(N2CCC(N3CC[C@@H](Nc4ccc(S(C)(=O)=O)cc4F)C3=O)CC2)n1` [Example 2, (R)-3-(2-fluoro-4-(methylsulfonyl)phenylamino)-1-(1-(3-isopropyl-1,2,4-thiadiazol-5-yl)piperidin-4-yl)pyrrolidin-2-one], the “cAMP production in HEK-293 cells” value stood at 21.9 nmol and the Fold over baseline is listed as 3.1.

On to `CCS(=O)(=O)c1ccc(N[C@H]2CCN(C3CCN(c4nc(C(C)C)ns4)CC3)C2=O)c(F)c1` [Example 3, (S)-3-(4-(ethylsulfonyl)-2-fluorophenylamino)-1-(1-(3-isopropyl-1,2,4-thiadiazol-5-yl)piperidin-4-yl)pyrrolidin-2-one], for which the “cAMP production in HEK-293 cells” value was determined as 25.3 nmol and the Fold over baseline is recorded as 5.4.

With `CC(C)c1nsc(N2CCC(N3CC[C@H](Nc4ccc(S(=O)(=O)C5CC5)cc4F)C3=O)CC2)n1` [Example 4, (S)-3-(4-(cyclopropylsulfonyl)-2-fluorophenylamino)-1-(1-(3-isopropyl-1,2,4-thiadiazol-5-yl)piperidin-4-yl)pyrrolidin-2-one], the “cAMP production in HEK-293 cells” value turned out to be 24.2 nmol and the Fold over baseline worked out at 4.3.

For the compound `CC(C)c1nsc(N2CCC(N3CC[C@H](Nc4cc(F)c(S(C)(=O)=O)cc4F)C3=O)CC2)n1` [Example 5, (S)-3-(2,5-difluoro-4-(methylsulfonyl)phenylamino)-1-(1-(3-isopropyl-1,2,4-thiadiazol-5-yl)piperidin-4-yl)pyrrolidin-2-one], the “cAMP production in HEK-293 cells” value was 19.2 nmol and the Fold over baseline came to 2.7.

Take `CC(C)c1nsc(N2CCC(N3CC[C@H](Nc4ccc(S(=O)(=O)CC5CC5)cc4F)C3=O)CC2)n1` [Example 6, (S)-3-(4-(cyclopropylmethylsulfonyl)-2-fluorophenylamino)-1-(1-(3-isopropyl-1,2,4-thiadiazol-5-yl)piperidin-4-yl)pyrrolidin-2-one]: the “cAMP production in HEK-293 cells” value was 23.2 nmol and the Fold over baseline is 3.2.

Regarding `CC(C)c1nsc(N2CCC(N3CC[C@@H](Nc4ccc(S(=O)(=O)C5CC5)cc4F)C3=O)CC2)n1` [Example 7, (R)-3-(4-(cyclopropylsulfonyl)-2-fluorophenylamino)-1-(1-(3-isopropyl-1,2,4-thiadiazol-5-yl)piperidin-4-yl)pyrrolidin-2-one], the “cAMP production in HEK-293 cells” value came to 23.8 nmol and the Fold over baseline is 3.4.

For the compound `CC(C)c1nsc(N2CCC(N3CC[C@H](Nc4ccc(S(=O)(=O)C(C)C)cc4F)C3=O)CC2)n1` [Example 8, (S)-3-(2-fluoro-4-(isopropylsulfonyl)phenylamino)-1-(1-(3-isopropyl-1,2,4-thiadiazol-5-yl)piperidin-4-yl)pyrrolidin-2-one], the “cAMP production in HEK-293 cells” value worked out at 37.6 nmol and the Fold over baseline came to 4.7.

On to `CC(C)c1nsc(N2CCC(N3CC[C@H](Nc4cc(Cl)c(S(C)(=O)=O)cc4F)C3=O)CC2)n1` [Example 9, (S)-3-(5-chloro-2-fluoro-4-(methylsulfonyl)phenylamino)-1-(1-(3-isopropyl-1,2,4-thiadiazol-5-yl)piperidin-4-yl)pyrrolidin-2-one], for which the “cAMP production in HEK-293 cells” value was 16.0 nmol and the Fold over baseline was 4.0.

Regarding `CC(C)c1nsc(N2CCC(N3CC[C@H](Nc4ccc(S(C)(=O)=O)cc4C#N)C3=O)CC2)n1` [Example 10, (S)-2-(1-(1-(3-isopropyl-1,2,4-thiadiazol-5-yl)piperidin-4-yl)-2-oxopyrrolidin-3-ylamino)-5-(methylsulfonyl)benzonitrile], the “cAMP production in HEK-293 cells” value worked out at 11.3 nmol and the Fold over baseline was determined as 2.3.

Consider `CC(C)c1nsc(N2CCC(N3CC[C@H](Nc4ccc(S(C)(=O)=O)c(Cl)c4)C3=O)CC2)n1` [Example 11, (S)-3-(3-chloro-4-(methylsulfonyl)phenylamino)-1-(1-(3-isopropyl-1,2,4-thiadiazol-5-yl)piperidin-4-yl)pyrrolidin-2-one], for which the “cAMP production in HEK-293 cells” value turned out to be 10.8 nmol and the Fold over baseline came out at 3.0.

For `CC(C)c1nsc(N2CCC(N3CC[C@H](Nc4ccc(S(C)(=O)=O)cc4Cl)C3=O)CC2)n1` [Example 12, (S)-3-(2-chloro-4-(methylsulfonyl)phenylamino)-1-(1-(3-isopropyl-1,2,4-thiadiazol-5-yl)piperidin-4-yl)pyrrolidin-2-one], the “cAMP production in HEK-293 cells” value stood at 17.5 nmol and the Fold over baseline is listed as 3.9.

Turning to `CC(C)c1nsc(N2CCC(N3CC[C@@H](Nc4ccc(S(=O)(=O)N(C)C)cc4F)C3=O)CC2)n1` [Example 13, (R)-3-fluoro-4-(1-(1-(3-isopropyl-1,2,4-thiadiazol-5-yl)piperidin-4-yl)-2-oxopyrrolidin-3-ylamino)-N,N-dimethylbenzenesulfonamide], the “cAMP production in HEK-293 cells” value is 25.2 nmol and the Fold over baseline stood at 3.4.

As for `CC(C)c1nsc(N2CCC(N3CC[C@H](Nc4ncc(S(C)(=O)=O)cn4)C3=O)CC2)n1` [Example 14, (S)-1-(1-(3-isopropyl-1,2,4-thiadiazol-5-yl)piperidin-4-yl)-3-(5-(methylsulfonyl)pyrimidin-2-ylamino)pyrrolidin-2-one], the “cAMP production in HEK-293 cells” value is 17.5 nmol and the Fold over baseline stood at 2.8.

`CC(C)c1nsc(N2CCC(N3CC[C@H](Nc4ccc(Br)cn4)C3=O)CC2)n1` [Example 15, (S)-3-(5-Bromopyridin-2-ylamino)-1-(1-(3-isopropyl-1,2,4-thiadiazol-5-yl)piperidin-4-yl)pyrrolidin-2-one]: the “cAMP production in HEK-293 cells” value came to 11.4 nmol and the Fold over baseline came to 2.7.

Consider `CC(C)c1nsc(N2CCC(N3CC[C@H](Nc4ccc(S(C)(=O)=O)cn4)C3=O)CC2)n1` [Example 16, (S)-1-(1-(3-isopropyl-1,2,4-thiadiazol-5-yl)piperidin-4-yl)-3-(5-(methylsulfonyl)pyridin-2-ylamino)pyrrolidin-2-one], for which the “cAMP production in HEK-293 cells” value was 27.2 nmol and the Fold over baseline turned out to be 3.7.

Consider `Cc1cc(S(C)(=O)=O)cnc1N[C@H]1CCN(C2CCN(c3nc(C(C)C)ns3)CC2)C1=O` [Example 17, (S)-1-(1-(3-isopropyl-1,2,4-thiadiazol-5-yl)piperidin-4-yl)-3-(3-methyl-5-(methylsulfonyl)pyridin-2-ylamino)pyrrolidin-2-one], for which the “cAMP production in HEK-293 cells” value was found to be 11.2 nmol and the Fold over baseline was 2.1.

On to `Cc1cc(N[C@H]2CCN(C3CCN(c4nc(C(C)C)ns4)CC3)C2=O)c(F)cc1S(C)(=O)=O` [Example 18, (S)-3-(2-fluoro-5-methyl-4-(methylsulfonyl)phenylamino)-1-(1-(3-isopropyl-1,2,4-thiadiazol-5-yl)piperidin-4-yl)pyrrolidin-2-one], for which the “cAMP production in HEK-293 cells” value came to 20.1 nmol and the Fold over baseline is 3.4.

On to `CCS(=O)(=O)c1ccc(NC2CCN(C3CCN(c4nc(C(C)C)ns4)CC3)C2=O)cc1C` (centres unmarked) [Example 19, 3-(4-(Ethylsulfonyl)-3-methylphenylamino)-1-(1-(3-isopropyl-1,2,4-thiadiazol-5-yl)piperidin-4-yl)pyrrolidin-2-one], for which the “cAMP production in HEK-293 cells” value came to 16.4 nmol and the Fold over baseline stood at 2.4.

Take `CCS(=O)(=O)c1ccc(NC2CCN(C3CCN(c4nc(C(C)C)ns4)CC3)C2=O)cc1F` (centres unmarked) [Example 20, 3-(4-(ethylsulfonyl)-3-fluorophenylamino)-1-(1-(3-isopropyl-1,2,4-thiadiazol-5-yl)piperidin-4-yl)pyrrolidin-2-one]: the “cAMP production in HEK-293 cells” value was 22.6 nmol and the Fold over baseline worked out at 3.5.

With `Cc1cc(S(C)(=O)=O)ccc1NC1CCN(C2CCN(c3nc(C(C)C)ns3)CC2)C1=O` (centres unmarked) [Example 21, 1-(1-(3-isopropyl-1,2,4-thiadiazol-5-yl)piperidin-4-yl)-3-(2-methyl-4-(methyl-sulfonyl)phenylamino) pyrrolidin-2-one], the “cAMP production in HEK-293 cells” value was determined as 13.0 nmol and the Fold over baseline is 3.3.

Take `CC(C)Cc1nsc(N2CCC(N3CC[C@H](Nc4ccc(S(C)(=O)=O)cc4F)C3=O)CC2)n1` [Example 22, (S)-3-(2-fluoro-4-(methylsulfonyl)phenylamino)-1-(1-(3-isobutyl-1,2,4-thiadiazol-5-yl)piperidin-4-yl)pyrrolidin-2-one trifluoroacetate]: the “cAMP production in HEK-293 cells” value is 22.1 nmol and the Fold over baseline was determined as 7.6.
